In BindingDB's records for doi:10.1021/bi1017182 (University of California Riverside, 2011):

Target: T1, Carbon monoxide dehydrogenase small chain (Afipia carboxidovorans (strain ATCC 49405 / DSM 1227 / KCTC 32145 / OM5), UniProt P19921)
T1 sequence (P19921 whole entry): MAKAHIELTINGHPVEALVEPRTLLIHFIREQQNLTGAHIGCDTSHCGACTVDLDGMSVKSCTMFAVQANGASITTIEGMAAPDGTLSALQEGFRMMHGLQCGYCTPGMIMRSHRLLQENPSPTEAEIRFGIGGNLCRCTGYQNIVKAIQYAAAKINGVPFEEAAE
Assay: Inhibition Assay
Description: Inhibition of CODH by Diphenyliodomium chloride. Inactivation of the FAD cofactor of CODH was accomplished by covalent modification of the flavin with diphenyliodonium chloride using a modification of the procedure of Chakraborty and Massey.

Question: Which Kd does the source give for O=C1C=CC(=O)C=C1 [1,4-Benzoquinone] here?
Answer: 47.6 µM

Question: O=C1C=CC(=O)c2ccccc21 [1,4-dihydronaphthalene-1,4-dione] was tested. Which Kd did it give?
Answer: 140 µM
